Molecular target: T1, angiotensin II receptor (Rattus norvegicus, UniProt P25095)
T1 sequence (P25095 1-359): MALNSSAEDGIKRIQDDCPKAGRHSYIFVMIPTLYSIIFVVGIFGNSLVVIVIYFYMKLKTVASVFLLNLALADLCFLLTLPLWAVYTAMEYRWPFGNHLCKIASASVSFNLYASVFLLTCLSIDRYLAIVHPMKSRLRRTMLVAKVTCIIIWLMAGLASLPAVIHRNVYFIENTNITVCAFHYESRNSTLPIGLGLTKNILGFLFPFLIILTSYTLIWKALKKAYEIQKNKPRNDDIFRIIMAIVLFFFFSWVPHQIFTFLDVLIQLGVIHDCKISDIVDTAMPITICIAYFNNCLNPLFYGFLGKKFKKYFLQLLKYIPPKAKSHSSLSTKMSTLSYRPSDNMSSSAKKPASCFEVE
Assay: Inhibition of binding of angiotensin II to rat smooth muscle cells (125I-Tyr4-angiotensin II)
Conditions: 125I-AII; rat aorta-derived smooth muscle cells; room temperature, one hour; read-out: IC50, inhibitory activity to the binding of angiotensin II to its receptor

CCc1nc2c(C)cc(C)nc2n1Cc1ccc2nc(-c3ccccc3C(=O)O)ccc2c1
IC50: 6.4 nM

CCCCc1nc(Cl)c(C=O)n1Cc1ccc2nc(-c3ccccc3C(=O)O)ccc2c1
IC50: 50 nM

CCCCc1nc(Cl)c(CO)n1Cc1ccc2nc(-c3ccccc3C(=O)O)ccc2c1
IC50: 0.92 nM

CCCCc1nc(Cl)c(CO)n1Cc1ccc2nc(-c3ccccc3-c3nnn[nH]3)ccc2c1 [Example 11, {2-butyl-4-chloro-1-{[2-[2-(1H-tetrazol-5-yl)phenyl]quinolin-6-yl]methyl}-1H-imidazol-5-yl}methanol]
IC50: 2.5 nM

CCc1nc2c(C)cc(C)nc2n1Cc1ccc2nc(-c3ccccc3C(=O)OC)ccc2c1 [Example 12, methyl 2-{6-[(2-ethyl-5,7-dimethyl-3H-imidazo-[4,5-b]pyridin-3-yl)methyl]quinolin-2-yl}benzoate]
IC50: 440 nM

CCc1nc2c(C)cc(C)nc2n1Cc1ccc2nc(-c3ccccc3-c3nnn[nH]3)ccc2c1 [Example 15, 2-ethyl-5,7-dimethyl-3-{[2-[2-(1H-tetrazol-5-yl)phenyl]quinolin-6-yl]methyl}-3H-imidazo[4,5-b]pyridine]
IC50: 0.94 nM

CCCCc1nc2cccnc2n1Cc1ccc2nc(-c3ccccc3C(=O)O)ccc2c1 [Example 17]
IC50: 11 nM

CCc1nc2c(C)cc(C)nc2n1Cc1ccc2nc(-c3ccccc3-c3nnn[nH]3)cc(Cl)c2c1 [Example 21, 2-ethyl-5,7-dimethyl-3-{[4-chloro-2-[2-(1H-tetrazol-5-yl)phenyl]quinolin-6-yl]methyl}-3H-imidazo[4,5-b]pyridine]
IC50: 7.7 nM

Reference: patent publication US5478832A, “Quinoline compounds” (The Green Cross Corporation, priority 1992, dated 1995)
